Laboratory results reported in patent US20070166251A1, “Composition and method for treating hyperpigmented skin” (LIPO CHEMICALS INC., priority 2005, published 2007).

Key:
[1] = clinical study of skin brightening and skin redness (chromameter readings); type: in vivo, human; details: 0.3% emulsion twice daily
Procedure: The skin brightening efficacy of p-HCA in ethoxydyglycol versus kojic acid also was tested in a clinical study. In this study, an emulsion containing 0.3%, by weight, p-HCA or kojic acid was used on twenty, mostly female, subjects between the ages of 30 to 50 years. The test composition was applied to the abdomen twice daily (a.m. and p.m.). The test was conducted for eight weeks, and chromameter readings were taken at baseline, and after 2, 4, 6, and 8 weeks.

[2] = metabolism of p-HCA in homogenized human skin; type: in vitro ADME; details: eight hours of incubation with skin enzymes, 37° C.
Procedure: First, to confirm in vivo activity of p-HCA, the metabolism of p-HCA in the skin was determined. In this test, human skin was homogenized in a PBS (phosphate-buffered saline)-ethanol solution, followed by dissolution of p-HCA. The solution was incubated at 37° C. for 8 hours. Samples were taken after 0, 4, and 8 hours, and were centrifuged. The supernatant was filtered and analyzed by HPLC. […] The amount of p-HCA that is metabolized was considered insignificant with respect to an efficacious treatment of hyperpigmentation.

[3] = solubility of p-HCA in various solvents (HPLC); type: physicochemical
Procedure: Various solvents were tested for an ability to dissolve p-HCA and provide a suitable composition for topical application to efficaciously treat hyperpigmentation, e.g., to allow the HCA to permeate the surface of the skin and deposit the p-HCA at the site of melanin formation. p-HCA was added to various solvents, then sonicated for two hours at 35° C. until no further HCA was dissolved. The samples were cooled to room temperature (25° C.) and allowed to stabilize for 15 hours. The undissolved p-HCA was allowed to settle, the supernatant liquid was filtered through a 0.2 micron syringe filter. Approximately 0.08 g of this filtered material was weighed into a 25 ml volumetric flask and diluted to volume with HPLC mobile phase. Two standards were analyzed by HPLC and compared to the two samples. All samples were analyzed by HPLC on a Hypersil ODS C18 column using water, methanol, glacial acetic acid (55:45:1) as the mobile phase. The flow rate was 1 ml/min and the wavelength for detection was 270 nm.

[4] = skin penetration, Franz diffusion cells; type: in vitro ADME, human
Procedure: In another experiment, a 10% solution of p-HCA in ethoxydiglycol first was prepared. This solution was added to a skin care emulsion in a sufficient amount to provide either 0.3% or 0.1%, by weight, of p-HCA in the final composition. As a comparative example, 0.3%, by weight, of solid p-HCA was added to the same skin care emulsion. The skin care emulsion to which solid p-HCA or the p-HCA solution was added had the following formula (w/w%): • 85.35 water • 0.2 methylparaben • 0.35 xanthan gum • 5.0 butylene glycol • 4.0 sesame oil • 2.5 glyceryl stearate • 0.5 PEG-150 distearate • 1.25 neopentyl glycol dicaprylate/dicaprate • 0.6 emulsifying wax • 0.25 imidazolidinyl urea.
The skin care emulsions containing p-HCA were applied to cadaver skin. Skin penetration of p-HCA was studied using Franz diffusion cells, n=5 (Permegear, Bethlehem, Pa.). The receptor contained an isotonic phosphate buffer with 30% ethanol, and was stirred continuously at 600 rpm. Samples of dermatomed human cadaver skin (NDRA, Philadelphia) were placed on the cells and prehydrated for 1 hour prior to the experiment. One milliliter of each formulation was added to the donor compartment of each cell, which was covered tightly with PARAFIL®. Samples (300 μl) were withdrawn from the receptor compartment every hour over 8 hours, and replaced with 300 μl of fresh receptor solution. After 8 hours, the skin was removed and cut into small pieces. The skin pieces were homogenized using a Kinematica POLYTRON® homogenizer and centrifuged. The supernatant was filtered through 0.22μ filters, and the p-HCA content was quantified.
All samples were analyzed by HPLC on a Hypersil ODS C18 column using water, methanol, glacial acetic acid (55:45:1) as the mobile phase at a flow rate of 1 ml/min and detection at 270 nm. Lag time and flux were obtained from permeation profiles and skin drug content also was recorded.
This experiment was repeated using PEG-4 as the solvent for the p-HCA.
The method used to determine skin permeability was the Franz diffusion method disclosed above. […] In particular, 3.9 mcg/ml of p-HCA was found in the receptor compartment of the skin (i.e., permeated through the skin) as opposed to 16.3 mcg/ml p-HCA found within the skin.

[5] = ethoxydiglycol vs solid p-HCA, FIG. 1 and Table 1
[6] = formula: 0.5% p-HCA, 53% ethanol, Carbopol 981, glycerin, triethanolamine, water
[7] = in presence of ethoxydiglycol vs powder form

In the case of `O=c1cc(CO)occ1O` [kojic acid], the “effect on skin redness” value ([1]; throughout the eight-week clinical trial) is reported as “did not reduce redness” and the “effect on skin redness” value ([1]; weeks 4 and 8) is reported as “induced redness”.

For `O=C(O)C=Cc1ccc(O)cc1` [p-HCA, p-hydroxycinnamic acid], the p-HCA metabolized [2] was 3.6%, the “solubility in 30% hydroethanolic solution” value ([3]; 30% hydroethanolic solution, 25° C.) was 0.75 wt % and the “solubility in PEG-4” value ([3]; PEG-4, 25° C.) was 18.5 wt %. The “solubility in PEG-6” value ([3]; PEG-6, 25° C.) was 19.7 wt %, the “solubility in PEG-8” value ([3]; PEG-8, 25° C.) was 19.7 wt % and the “solubility in butylene glycol” value ([3]; butylene glycol, 25° C.) was 2.25 wt %. The “solubility in diethylene glycol” value ([3]; diethylene glycol, 25° C.) was 18.1 wt %, the solubility in ethanol ([3]; ethanol, 25° C.) was 14.8 wt % and the solubility in ethoxydiglycol ([3]; ethoxydiglycol, 25° C.) was 19.7 %, by weight. For the same compound, the “solubility in glycereth-26” value ([3]; glycereth-26, 25° C.) was 7 wt %, the “solubility in pentylene glycol” value ([3]; pentylene glycol, 25° C.) was 1.75 wt % and the “solubility in silicone fluid DC 193” value ([3]; silicone fluid DC 193, 25° C.) was 4.7 wt %. The “deposition of p-HCA on the skin compared to a control” value ([4]; PEG-4 as the solvent for the p-HCA) was “significantly increased”, the “elevation of deposition of p-HCA in the skin” value [4, 5] was 93% and the “increase of flux into the skin” value [4, 5] was 107%. The “amount of HCA deposited in the skin relative to amount transmitted through the skin” value [4, 6] was “four times greater”, the “p-HCA found in the receptor compartment (permeated through the skin)” value [4, 6] was 3.9 µg/mL and the “p-HCA found within the skin” value [4, 6] was 16.3 µg/mL. The “change of flux of p-HCA through the skin” value [4, 7] was “doubled”, the “elevation of percent of p-HCA that permeates cadaver skin” value [4, 7] was 43% and the “elevation of percentage of p-HCA that remained within the skin” value [4, 7] was “about 50%”.
